Earlier results on one compound are cited in patent US9895453B1, “Shiny ultrasound gel” (priority 2016, dated 2018).

In one data set the test system is Ps. cepacia. To be noted: initial inoculum 2.7 × 10^6 per gram product, 0.7% Suttocide A.

Take `O=C([O-])CNCO.[Na+]` [Suttocide® A, Sodium Hydroxymethylglycinate]: the “organism growth (count) at 48 hours” value is recorded as below 10 in the data set with C. ablicans (C. ablicans, 48 hours, initial inoculum 4.3 × 10^6 per gram product, 0.7% Suttocide A); below 10 in the data set with Ps. aeruginosa (Ps. aeruginosa, 48 hours, initial inoculum 9.5 × 10^6 per gram product, 0.7% Suttocide A); below 10 in the data set on A. niger (A. niger, 48 hours, initial inoculum 8.0 × 10^6 per gram product, 0.7% Suttocide A); below 10 in the data set on E. Coli (E. Coli, 48 hours, initial inoculum 6.0 × 10^6 per gram product, 0.7% Suttocide A); below 10 with Ps. cepacia (48 hours); below 10 in the data set with Staph aureus (Staph aureus, 48 hours, initial inoculum 7.3 × 10^6 per gram product, 0.7% Suttocide A). Moreover, the “organism growth (count) at 7 days” value with C. ablicans (C. ablicans, 7 days, initial inoculum 4.3 × 10^6 per gram product, 0.7% Suttocide A) is below 10; in the data set with Ps. aeruginosa (Ps. aeruginosa, 7 days, initial inoculum 9.5 × 10^6 per gram product, 0.7% Suttocide A), below 10; with A. niger (A. niger, 7 days, initial inoculum 8.0 × 10^6 per gram product, 0.7% Suttocide A), below 10; with E. Coli (E. Coli, 7 days, initial inoculum 6.0 × 10^6 per gram product, 0.7% Suttocide A) it was below 10; in the data set with Ps. cepacia (7 days) it was below 10; in the data set with Staph aureus (Staph aureus, 7 days, initial inoculum 7.3 × 10^6 per gram product, 0.7% Suttocide A), below 10. The “organism growth (count) at 28 days” value with C. ablicans (C. ablicans, 28 days, initial inoculum 4.3 × 10^6 per gram product, 0.7% Suttocide A) is reported as below 10; with Ps. aeruginosa (Ps. aeruginosa, 28 days, initial inoculum 9.5 × 10^6 per gram product, 0.7% Suttocide A) it was below 10; in the data set on A. niger (A. niger, 28 days, initial inoculum 8.0 × 10^6 per gram product, 0.7% Suttocide A) it was below 10; with E. Coli (E. Coli, 28 days, initial inoculum 6.0 × 10^6 per gram product, 0.7% Suttocide A), below 10; with Ps. cepacia (28 days) it was below 10; in the data set with Staph aureus (Staph aureus, 28 days, initial inoculum 7.3 × 10^6 per gram product, 0.7% Suttocide A) it was below 10. The “kills at a concentration of” value with C. ablicans (candida albicans, TABLE 1) is on record as 0.7%; in the data set with Ps. aeruginosa (Pseudomonas aeruginosa, TABLE 1), 0.7%; with A. niger (Aspergillus niger (Aspergillus brasiliensis), TABLE 1), 0.7%; in the data set on E. Coli (Escheria coli, TABLE 1), 0.7%; in the data set with Staph aureus (Staphylococcus aureus, TABLE 1) it was 0.7%.
